Reference: patent publication US6376753B1, “PURIFIED CYTOCHROME P450 POLYPEPTIDE CYP76B1 FROM HELIANTHUS TUBEROSUS AND ITS APPLICATIONS AS BIOCATALYST IN PARTICULAR FOR THE DEGRADATION OF ENVIRONMENTAL POLLUTANTS AND FOR ALTERING THE RESISTANCE OF PLANTS SENSITIVE TO PHENYLUREA FAMILY OF HERBICIDES” (priority 1997, dated 2002)

Assays:
[1] = system: microsomes from aminopyrine-induced H. tuberosus tuber tissues; test: ECOD activity in microsomes from aminopyrine-induced tuber tissues; type: biochemical, Helianthus tuberosus
Source text: Gels were stained with Coomassie Blue R-250. […] The data are means ± S.D. of triplicates.
Table 1: NADPH- and cumene hydroperoxide-dependent ECOD activity in microsomes from aminopyrine-induced H. tuberosus tuber tissues and in microsomes from control and CYP76B1-transformed yeast. Immunoinhibition by anti-ECOD antibodies.

CYP76B1 [2] = target: T1, CYP76B1 (Helianthus tuberosus, UniProt O23976); test: CYP76B1-dependent metabolism (O-/N-dealkylation) in microsomes of transformed yeast; conditions: for ECOD activity: Transformed yeast W(R); for Activity: + NADPH; for turnover of the dealkylation: for phenylureas first dealkylation
T1 sequence (O23976 1-490): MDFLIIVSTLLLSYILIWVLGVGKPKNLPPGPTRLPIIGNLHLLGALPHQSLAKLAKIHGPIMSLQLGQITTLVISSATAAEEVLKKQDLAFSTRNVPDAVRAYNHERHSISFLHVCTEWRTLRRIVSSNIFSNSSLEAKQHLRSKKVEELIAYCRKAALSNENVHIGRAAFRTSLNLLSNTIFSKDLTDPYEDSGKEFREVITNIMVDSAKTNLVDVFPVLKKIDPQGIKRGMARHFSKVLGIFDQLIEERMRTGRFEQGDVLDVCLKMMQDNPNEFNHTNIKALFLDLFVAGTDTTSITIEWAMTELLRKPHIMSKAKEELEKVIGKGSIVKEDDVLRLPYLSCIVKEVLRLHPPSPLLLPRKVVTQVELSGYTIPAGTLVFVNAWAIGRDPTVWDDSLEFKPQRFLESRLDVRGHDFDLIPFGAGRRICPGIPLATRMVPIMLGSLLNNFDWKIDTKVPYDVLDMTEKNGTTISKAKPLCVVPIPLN
Experimental: BamHI and EcoRI sites were introduced by PCR just upstream of the ATG and downstream of the stop codon of the CYP76B1 coding sequence, using the primers 5′-[…] (sense) 5′-[…] (reverse) (SEQ ID NO 3 and SEQ ID NO 4 respectively). The PCR mixture was preheated for 2 min at 92° C. before addition of 1 unit of Pfu DNA polymerase (Stratagene). After 3 min additional heating at 92° C., 30 cycles of amplification were carried out as follows 1 min denaturation at 92° C., 1 min annealing at 52° C., 2 min extension at 72° C. The reaction was completed by 10 min extension at 72° C. After BamHI/EcoRI digestion, the 1470 bp coding sequence was inserted into the vector pYeDP60 (32). Transformation of Saccharomyces cerevisiae W(R), WAT11 and WAT21, and yeast growth were conducted according to Pompon et al. (32). Yeast microsomes were prepared as described in Pierrel et al. (33) with addition of 1% SAB, 2 mM β-mercaptoethanol, 10 mM sodium disulfite and 1 mM PMSF to the extraction buffer. When indicated, 0.5 mM δ-aminolevulinic acid methyl ester (Sigma) was added to the induction medium, or cells were stored at 4° C. for 24 h before preparation of the microsomes.
(§1) Spectrophotometric measurements of P450 content and substrate binding were performed as in (Gabriac et al., 1991) and SDS-PAGE was performed as in Gabriac et al. (34). Gels were stained with Coomassie Blue R-250. Alkoxycoumarins and alkoxyresorufins O-dealkylation was measured by fluorometry (Werck-Reichhart et al., 1990). The data are means ± S.D. of triplicates.
The conversion of other molecules was assayed by TLC or HPLC analysis of polar metabolites formed from radiolabeled compounds (Cabello-Hurtado et al., 1998a, b). NADPH-cytochrome c reductase was assayed according to (Benveniste et al., 1986). Kinetic data were fitted using the nonlinear regression program […] (Duggleby, 1984).
10 μL of non-immune serum or of serum raised against purified ECOD fraction were preincubated 2 min at room temperature with 10 μL of microsomes before addition of the reaction mix. n.d.: not detectable.
Conversion was estimated from the sum of the two polar metabolites detected after TLC analysis. Data are means + S.D. of two to four determinations. n.d.: not detected.
CYP76B1 concentrations in the MCOD, ECOD, MROD and EROD fluorometric assays were 1.5 nM or 2.1 nM, depending on the coexpressed ATR1 or yeast reductases. In the CTUDM assays, CYP76B1 concentrations were 1.7 nM (ATR1) and 8 nM (yeast), respectively. It was 12 nM for the determination of the catalytic parameters of monodemethyl-CTUDM, and 1.7 nM (ATR1) or 20 nM (yeast) in the IPUDM assays. Products were quantified by direct TLC analysis of 100 μL of the acidified incubation medium after 6 min incubation at 30° C. for the CTUDM and IPUDM assays, and after 9 min incubation for the monodemethyl-CTUDM.

control yeast microsomes = test: Metabolism in control yeast microsomes (void plasmid pYeDP60); type: biochemical, Saccharomyces cerevisiae; conditions: NADPH
CYP73A1 = target: T2, CYP73A1 (Helianthus tuberosus, UniProt Q04468); conditions: chlortoluron hydroxylation; cited from earlier work
T2 construct: host or cells: yeast-expressed, according to b197
T2 sequence (Q04468 1-505): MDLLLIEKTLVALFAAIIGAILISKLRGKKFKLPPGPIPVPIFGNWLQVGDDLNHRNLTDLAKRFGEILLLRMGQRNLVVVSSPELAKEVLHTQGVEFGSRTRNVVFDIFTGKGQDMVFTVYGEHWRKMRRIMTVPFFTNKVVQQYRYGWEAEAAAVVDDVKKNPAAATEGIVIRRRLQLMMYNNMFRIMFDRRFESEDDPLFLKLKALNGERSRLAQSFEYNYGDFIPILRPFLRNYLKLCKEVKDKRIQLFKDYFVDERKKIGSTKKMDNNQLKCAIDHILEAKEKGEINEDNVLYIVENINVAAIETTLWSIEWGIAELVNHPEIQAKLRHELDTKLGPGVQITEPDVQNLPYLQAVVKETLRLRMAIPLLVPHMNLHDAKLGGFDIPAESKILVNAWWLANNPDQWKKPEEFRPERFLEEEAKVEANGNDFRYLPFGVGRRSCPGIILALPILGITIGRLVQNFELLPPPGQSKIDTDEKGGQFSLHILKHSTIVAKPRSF

CYP76B1 [3] = target: T1, CYP76B1; test: biochemical
Experimental: as §1
The binding of substrates into the catalytic site of a P450 usually induces a shift of its maximum of absorbance, redox potential and iron spin state (Raag and Poulos, 1989) resulting from the displacement of the water sixth ligand of the heme iron. It is easily detected by differential spectrophotometry as a so-called type I spectrum with a peak at 390 nm and a trough at 420 nm (Jefcoate, 1978). The variation of the differential absorbance ΔA390-420 versus substrate concentration allows the calculation of an apparent dissociation constant (Ks). A high ΔAmax induced by the ligand is usually an indication of correct positioning for catalysis.
CYP76B1 was 60 nM in the assays. Difference spectra were recorded after the addition of increasing concentrations of ligands to the sample cuvette. An equal volume of the herbicide solvent (DMSO) was added to the reference. Ks and ΔAmax at saturating ligand concentration were calculated from the double-reciprocal plots of ΔA(390-420 nm) versus substrate concentrations.

[4] = system: cotton seedling hypocotyl microsomes; conditions: read-out: Km for demethylation; cited from earlier work
[5] = system: tobacco transformed with CYP76B1; test: Leaf pieces of tobacco transformed with CYP76B1 aged on herbicide medium; type: cell-based; conditions: 10 days on MS medium containing 0.5 μM linuron; versus empty plasmid
Experimental: FIG. 15 : Leaf pieces from tobacco transformed with CYP76B1 (left) or with an empty plasmid (right) were aged for 10 days on Murashige and Skoog (MS) medium containing 0.5 μM linuron.
The CYP76B1 cDNA was inserted in vector pBDX (Gachotte D., 1995). The resulting vector was mobilized into Agrobacterium tumefaciens strain LBA4404 by triparental mating (Ditta G. et al., 1980). Plant transformation was realized according to Horsch et al. (1985): tobacco leaf disks were soaked for 10 minutes in an Agrobacterium solution, blotted dry and placed on MS callus-inducing medium containing 500 μg/ml cefotaxime and 100 μg/ml kanamycin. After four to six weeks, shoots were transferred on MS-rooting medium containing 100 μg/ml cefotaxime and 100 μg/ml kanamycin. After rooting, plants were transferred in soil.

[6] = 50 μM NADPH, 400 μM 7-ethoxycoumarin

Q: Which ECOD activity [1, 6] does the source give for CCOc1ccc2ccc(=O)oc2c1 [7-ethoxycoumarin] here?
A: Its ECOD activity is 5.2 ± 0.1 pkat · mg^−1 protein.

Q: And the ECOD activity ([1]; 125 μM cumene hydroperoxide)?
A: The ECOD activity was 2.5 ± 0.09 pkat · mg^−1 protein.

Q: What about the ECOD activity ([1]; NADPH + anti-ECOD antibodies) of the same compound?
A: The ECOD activity was 2.6 ± 0.1 pkat · mg^−1 protein.

Q: What about the Vmax (CYP76B1 [2]; ECOD, W(R) yeast microsomes, NADPH) of the same compound?
A: The Vmax was 600 pkat.pmole^−1 P450.

Q: And the ECOD activity (CYP76B1 [2]; [6])?
A: Its ECOD activity is 8.4 ± 0.05 pkat · mg^−1 protein.

Q: What about the ECOD activity (CYP76B1 [2]; 125 μM cumene hydroperoxide) of the same compound?
A: The ECOD activity was “no activity”.

Q: And the ECOD activity (CYP76B1 [2]; NADPH + anti-ECOD antibodies)?
A: The ECOD activity was 7.5 ± 0.2 pkat · mg^−1 protein.

Q: And the Activity (CYP76B1 [2]; W(R) strain)?
A: Its Activity is 8.4 pkat mg-1 protein.

Q: And the “turnover of the dealkylation” value (CYP76B1 [2]; W(R) strain)?
A: The value was 10 min⁻¹.

Q: What about the Activity (CYP76B1 [2]; WAT11 strain) of the same compound?
A: Its Activity is 15.9 pkat mg-1 protein.

Q: And the “turnover of the dealkylation” value (CYP76B1 [2]; WAT11 strain)?
A: The value was 30 min⁻¹.

Q: And the ECOD activity (control yeast microsomes)?
A: The ECOD activity was “No activity”.

Q: Which results are given for Cc1ccc(NC(=O)N(C)C)cc1Cl [Chlortoluron, N-(3-chloro-p-tolyl)-N′,N′-dimethylurea]?
A: Activity (CYP76B1 [2]; W(R) strain): 1223 pkat mg-1 protein; turnover of the dealkylation (CYP76B1 [2]; W(R) strain): about 376 min^−1; Activity (CYP76B1 [2]; WAT11 strain): 4258 pkat mg-1 protein; turnover of the dealkylation (CYP76B1 [2]; WAT11 strain): 803 min⁻¹; Kcat (CYP76B1 [2]; coexpressed reductase ATR1 (WAT11)): 13.4 s⁻¹; Kcat (CYP76B1 [2]; coexpressed yeast reductase (W(R))): 6.27 s⁻¹; kCat of the second demethylation (CYP76B1 [2]; second demethylation, slow step for complete detoxification): 0.767 s⁻¹; reaction turnover (hydroxylation) (CYP73A1): 0.014 min⁻¹; Kd (CYP76B1 [3]): 24 µM; ΔAmax × 10^−3 (CYP76B1 [3]; CYP76B1 60 nM, at saturating ligand concentration): 5.1 × 10^−3

Q: With CN(C)C(=O)Nc1ccc(Cl)c(Cl)c1 [Diuron] as the compound, how does the Km [4] read?
A: The Km was 15 µM.

Q: What about the Kd (CYP76B1 [3]) of the same compound?
A: Its Kd is 20 µM.

Q: Which “chlorophyll destruction in leaf pieces” value [5] does the source give for CON(C)C(=O)Nc1ccc(Cl)c(Cl)c1 [linuron] here?
A: The value was “avoids chrorophyll destruction”.
